Results reported in patent US12714723B2, “Compositions and methods for cancer therapy” (AIM ImmunoTech Inc., priority 2018, dated 2026).
Where two headings read alike, the source gives them in different places. Marks after values point to notes of the source that are not given here.

Legend:
[1] = tested on: pancreatic carcinoma; conditions: second-line, cited from earlier work
[2] = tested on: locally advanced and metastatic pancreatic carcinoma; conditions: first-line therapy, n = 171 per arm; cited from earlier work
[3] = tested on: pancreatic carcinoma; assay: Second-line therapy following progression on FOLFIRINOX; assay type: in vivo, human; conditions: Overall (mean)
From the text: Overall Survival (OS) increased from 6.8 months with Gemcitabine to 11.1 months with FOLFIRINOX (p<0.001). However, the Complete Response Rate (CR) was only 0.6%.

[4] = tested on: renal cell carcinoma (786-0) xenografts; conditions: Hubbell, 1990, cited from earlier work
[5] = tested on: B16 melanoma tumors; conditions: n = 10; for Number of Partial Responses (PR) / Number of Complete Responses (CR): Day 30; for Number of Complete Responses (CR): RECIST v1.1
Procedure: Rintatolimod together with anti-PD-L1 antibodies were tested for anti-tumor activity against established subcutaneous B16 melanoma tumors in C57BL/6 mice. Mice (10 animals per group) were inoculated with 0.4×10E6 B16-F10 tumor cells in their shaved rear flanks. Seven days later (when tumors reached 0.3 to 0.5 cm in their largest diameter), mice were randomized for tumor sizes, and individually tagged and were allocated to the following six treatment groups: • No treatment (negative controls) • Rintatolimod alone 100 μg/dose 4× • Rintatolimod alone 250 μg/dose 4× • Anti-PD-L1 mAb alone • Rintatolimod 100 μg/dose 4× plus anti-PD-L1 mAb • Rintatolimod 250 μg/dose 4× plus anti-PD-L1 mAb
Rintatolimod was injected intravenously at 100 or 250 micrograms/dose and was repeated 4 times, 5 days apart. Anti-PD-L1 mAb (clone 10F.9G2, BioXCell) was administered intraperitoneally on Days 1 and 3 after each rintatolimod injection at a 200 microgram/dose. Tumors were measured 3 times per week using a set of calipers, taking measurement of 2 opposing diameters and were recorded as tumor areas.
Results were presented as tumor sizes for individual mice throughout the time of therapy, average tumor size in each group and survival up to Day 30 (time to euthanasia).
® and anti-PD-L1 antibodies were tested for anti-tumor activity against established subcutaneous B16 melanoma tumors in C57BL/6 mice. Briefly, mice (10 animals per group) were inoculated with 0.4×10E6 (i.e., 400,000) B16-F10 tumor cells in their shaved rear flanks. Seven days later, mice were randomized to six treatment groups as follows: (Group 1) No treatment (negative controls); (Group 2) […] ® alone 100 μg/dose 4×; (Group 3) […] ® alone 250 μg/dose 4×; (Group 4) Anti-PD-L1 mAb alone; (Group 5) […] ® 100 μg/dose 4× plus anti-PD-L1 mAb; (Group 6) […] ® 250 μg/dose 4× plus anti-PD-L1 mAb. mAb refers to monoclonal antibody.
® was injected IV at 100 or 250 μg/dose 4 times, 5 days apart. Anti-PD-L1 mAb was administered IP on Days 1 and 3 after each […] ® dose at 200 μg/dose. Tumors were measured 3 times per week using calipers, measuring 2 opposing diameters. […] Results were presented as tumor sizes for individual mice throughout time of therapy up to Day 30.

[6] = tested on: pancreatic tumors; conditions: n = 8 each
Procedure: Please note that all four cohorts (control, […] ®, anti-PD-L1, […] ®+anti-PD-L1) were studied in the same parallel experiment.
In this experiment, sub-therapeutic doses of […] ® were administered in mouse models of pancreatic cancer.

[7] = tested on: human bladder tumor xenografts; assay: Human bladder tumor xenografts in nude mice; assay type: in vivo
[8] = tested on: renal cell carcinoma (786-0) xenografts; assay: Renal cell carcinoma (786-0) xenografts in nude mice; assay type: in vivo; conditions: for tumor growth: FIG. 7, vs untreated controls
[9] = tested on: TME of metastatic colorectal carcinoma; conditions: 9 patients vs. historical controls
From the text: Colorectal carcinoma was used as a GI model for pancreatic carcinoma in order to obtain biopsy specimens of the TME. We used […]® to determine if there is improvement in the Teff/Treg ratio in the TME secondary to the […]® induction of desirable chemokines, such as CXCL 10 (Teff-attractant), in the TME, while decreasing the unfavorable chemokines, such as CCL22 (C-C Motif Chemokine Ligand 22; Treg-attractant), thereby increasing the Teff/Treg ratio in the TME.
See, Example Section below.

Nc1ccn([C@@H]2O[C@H](CO)[C@@H](O)C2(F)F)c(=O)n1 [Gemcitabine]
Progression Free Survival (PFS) ([1]; Gilabert, et al. 2017, n = 72): 2.5 months | Complete Response Rates (CR) ([1]; Gilabert, et al. 2017): 0% | Partial Response Rates (PR) ([1]; Gilabert, et al. 2017): 5.5% | Overall Survival (OS) ([1]; Viaud, et al. 2017, n = 96): 3.7 months | Progression Free Survival (PFS) ([1]; Viaud, et al. 2017, n = 96): 2.1 months | Complete Response Rates (CR) ([1]; Viaud, et al. 2017): 0% | Partial Response Rates (PR) ([1]; Viaud, et al. 2017): 8.3% | Overall Survival (OS) ([1]; da Rocha, et al. 2015, n = 20): 5.7 months | Progression Free Survival (PFS) ([1]; da Rocha, et al. 2015, n = 20): 2.0 months | Complete Response Rates (CR) ([1]; da Rocha, et al. 2015): 0% | Partial Response Rates (PR) ([1]; da Rocha, et al. 2015): 0% | Complete Response Rates (CR), % [2]: 0(0) % | Overall Survival (OS) [2]: 6.8 months | Partial Response Rates (PR), % [2]: 9.4% | Progression Free Survival (PFS) [2]: 3.3 months | Partial Response Rates (PR) [3]: 6.4% | Complete Response Rates (CR) ([3]; weighted average): 0%* | Progression Free Survival (PFS) ([3]; weighted average): 2.24* months | Overall Survival (OS) ([3]; weighted average based on n in each study): 4.05* months

polyriboinosinic:polyribocytidylic(12:1)uridylic acid
tumor growth inhibition ([4]; p<0.001): statistically significant tumor growth inhibition | survival ([4]; p<0.002): increased survival | Total # Tumor Responses CR + PR ([5]; rintatolimod 100 μg/dose 4×): 0 | Number of Partial Responses (PR) ([5]; rintatolimod 100 μg/dose 4×): 0 | Number of Complete Responses (CR) ([5]; rintatolimod 100 μg/dose 4×): 0 | Total # Tumor Responses CR + PR ([5]; rintatolimod 250 μg/dose 4×): 0 | Number of Partial Responses (PR) ([5]; rintatolimod 250 μg/dose 4×): 0 | Number of Complete Responses (CR) ([5]; rintatolimod 250 μg/dose 4×): 0 | Time to Progression Median ([6]; sub-therapeutic doses, control 33): 33 days | Increased Time to Progression ([6]; versus control): 0 days | growth of human bladder tumor xenografts [7]: significantly inhibited | survival of nude mice ([8]; FIG. 8, 100% death rate for untreated controls): 100% | tumor growth ([8]; monotherapy, listed as rintatolimod): tumor regression was observed in each mouse | tumor growth ([8]; monotherapy, listed as tdsRNA): growth inhibition | mice free of the residual tumor ([8]; monotherapy, 100% of the control group had died): 90% | ratio of Teff/Treg markers in the TME [9]: improved ratios
